Some test systems named below: SF-539; COLO 205; SF-295; PC-3; NCI-H226; M14; CAKI-1; NCI/ADR-RES; SK-MEL-5; HCT-116; SF-268; SK-MEL-2; HT-29; CCRF-CEM; A498; EKVX; 786-0; RXF 393; HOP-62; SNB-75.
Assay in all cases: growth of human tumour cells (NCI), 48 h

The structures appear in SMILES notation.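 Grown in 96-well plates, cells were treated for 48 hours with each compound at five concentrations. Insufficient inhibition: endpoint recorded as highest concentration tested. GI50 marks 50% less growth.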 Activity calls are given as the source filed them. No stated cut-off is given here; in the data, active = GI50 up to about 1.1 µM and inactive = higher. A value given as a limit tells only on which side of the number the result lay.

As for `CC(=O)OCCn1c(Cc2ccc(Cl)cc2)nn(C(C)=O)c1=O`, the GI50 in the assay with SF-539, with COLO 205, in the assay on SF-295, with PC-3, in the assay on NCI-H226 and with M14 was > 100 µM (inactive) throughout. Besides, the GI50 with CAKI-1, in the assay with NCI/ADR-RES, with SK-MEL-5, in the assay on HCT-116, in the assay with SF-268 and in the assay with SK-MEL-2 was > 100 µM (inactive) in each case. Moreover, the GI50 with HT-29, in the assay with CCRF-CEM, in the assay on A498, in the assay with EKVX and in the assay on 786-0 was > 100 µM (inactive) in each case.
On to `CC(C)OC(=O)C1=C2c3ncccc3C(=O)N2[C@@H](Cl)[C@H](Cl)[C@H]1Cl`, for which the GI50 in the assay with SF-539 is > 100 µM (inactive); with COLO 205 it was 44 µM (inactive); in the assay with SF-295 it was > 100 µM (inactive); with PC-3 it was 56.6 µM (inactive); with RXF 393, > 100 µM (inactive); in the assay with NCI-H226, > 100 µM (inactive). Besides, the GI50 was > 100 µM (inactive) in the assay with M14; > 100 µM (inactive) in the assay on CAKI-1; > 100 µM (inactive) in the assay with NCI/ADR-RES; 83 µM (inactive) in the assay with SK-MEL-5; 50.6 µM (inactive) in the assay with HCT-116; 47.9 µM (inactive) in the assay on SF-268. Further, the GI50 in the assay on HOP-62 was > 100 µM (inactive); in the assay on SK-MEL-2, > 100 µM (inactive); with HT-29 it was > 100 µM (inactive); with A498, > 100 µM (inactive); with EKVX, > 100 µM (inactive); with 786-0 it was 55.2 µM (inactive).
With `Nc1ccccc1CCN1CCN(CCCc2ccccc2)CC1`, the GI50 was 39.2 µM (inactive) with SF-539; 21 µM (inactive) in the assay with COLO 205; 45.4 µM (inactive) with SF-295; 95.9 µM (inactive) with PC-3; 44.5 µM (inactive) in the assay with NCI-H226; 17.3 µM (inactive) with M14. Moreover, the GI50 is 57.3 µM (inactive) with CAKI-1; 90.4 µM (inactive) with NCI/ADR-RES; 17.9 µM (inactive) with SK-MEL-5; 34.7 µM (inactive) in the assay on HCT-116; 99.5 µM (inactive) in the assay with SF-268; > 100 µM (inactive) in the assay on HOP-62. In addition, the GI50 with SK-MEL-2 is > 100 µM (inactive); in the assay with HT-29 it was 21.4 µM (inactive); with CCRF-CEM, 46.1 µM (inactive); in the assay with A498 it was 74.5 µM (inactive); with EKVX, > 100 µM (inactive); in the assay with 786-0, 31.7 µM (inactive).
`C#Cc1cc(Br)c(OC(=O)C(C)(C)C)c(-c2cc(C#C)cc(Br)c2OC(=O)C(C)(C)C)c1`: the GI50 in the assay on SF-539 is 64.6 µM (inactive); with COLO 205, 31 µM (inactive); in the assay on SF-295, 30.5 µM (inactive); with PC-3, 50.2 µM (inactive); in the assay with RXF 393, 17.4 µM (inactive); with M14 it was 43.7 µM (inactive). The GI50 in the assay with CAKI-1 was 61.8 µM (inactive); in the assay with NCI/ADR-RES it was > 100 µM (inactive); in the assay with SK-MEL-5 it was 37.6 µM (inactive); with HCT-116, 21 µM (inactive); with SF-268 it was 50 µM (inactive); with HOP-62 it was 55.6 µM (inactive). Further, the GI50 in the assay with SK-MEL-2 is 49 µM (inactive); in the assay on HT-29, 22.1 µM (inactive); in the assay with CCRF-CEM, 10.3 µM (inactive); in the assay with A498 it was 57.7 µM (inactive); with EKVX it was 31.2 µM (inactive); in the assay on 786-0 it was 41.5 µM (inactive).
Regarding `COC1(OC)N=C(N)C2(C#N)C(c3ccccc3)NC3=C(CCC3)C12C#N` (configuration not stated), the GI50 with COLO 205, in the assay with SF-295, with PC-3, in the assay with RXF 393, in the assay on NCI-H226 and with M14 was > 100 µM (inactive) in each case. Also, the GI50 in the assay with CAKI-1, in the assay on NCI/ADR-RES, in the assay on SK-MEL-5, in the assay on HCT-116, with SF-268 and in the assay with HOP-62 was > 100 µM (inactive) in each case. Also, the GI50 in the assay with SK-MEL-2, with HT-29, in the assay on CCRF-CEM, in the assay with A498, in the assay on EKVX and in the assay on 786-0 was > 100 µM (inactive) each time.
With `Clc1ccc(NCc2nnc(CCCCCCCCc3nnc(CNc4ccc(Cl)cc4)o3)o2)cc1`, the GI50 in the assay with COLO 205, in the assay with SF-295, in the assay with PC-3, with RXF 393, with M14 and in the assay on CAKI-1 was > 100 µM (inactive) in each case. Moreover, the GI50 with SNB-75, in the assay with NCI/ADR-RES, with SK-MEL-5, in the assay on HCT-116, in the assay on SF-268 and with HOP-62 was > 100 µM (inactive) throughout. In addition, the GI50 with SK-MEL-2, with HT-29, in the assay on CCRF-CEM, with A498, with EKVX and in the assay on 786-0 was > 100 µM (inactive) each time.
With `O=C(NC(CO)CO)c1ccc2cc(C(=O)N3CC(CCl)c4ccc([N+](=O)[O-])cc43)[nH]c2c1` (configuration not stated), the GI50 in the assay with SF-539 is > 100 µM (inactive); in the assay on COLO 205, 50 µM (inactive); in the assay with SF-295 it was > 100 µM (inactive); with PC-3, > 100 µM (inactive); with RXF 393 it was > 100 µM (inactive); with NCI-H226, > 100 µM (inactive). Also, the GI50 in the assay with M14, in the assay on CAKI-1, in the assay on SNB-75, in the assay on NCI/ADR-RES, in the assay with SK-MEL-5 and in the assay with HCT-116 was > 100 µM (inactive) each time. The GI50 in the assay on SF-268, in the assay with HOP-62, in the assay on SK-MEL-2, in the assay on HT-29, in the assay on CCRF-CEM and in the assay with EKVX was > 100 µM (inactive) each time. Moreover, the GI50 in the assay with 786-0 is > 100 µM (inactive).
For `CCCC(=O)NC(Nc1cc(C)ccn1)(C(=O)OCC)C(F)(F)F` (configuration not stated), the GI50 in the assay with SF-539, in the assay on COLO 205, in the assay on SF-295, with PC-3, in the assay on RXF 393 and in the assay with NCI-H226 was > 100 µM (inactive) throughout. Also, the GI50 in the assay with M14, in the assay with CAKI-1, with SNB-75, with NCI/ADR-RES, in the assay with SK-MEL-5 and in the assay on HCT-116 was > 100 µM (inactive) in each case. The GI50 in the assay on SF-268, with HOP-62, in the assay on SK-MEL-2, in the assay on HT-29, in the assay on CCRF-CEM and in the assay with EKVX was > 100 µM (inactive) each time. In addition, the GI50 with 786-0 was > 100 µM (inactive).
Take `O=C1/C(=C/c2ccco2)N=C(c2ccccc2)N1c1cc2cc(Sc3ccccc3)ccc2[nH]1`: the GI50 with SF-539 was 17.9 µM (inactive); in the assay on COLO 205 it was 8.51 µM (inactive); in the assay on PC-3 it was > 25 µM (inactive); in the assay on RXF 393, 13.1 µM (inactive); with M14 it was 21.6 µM (inactive); in the assay on CAKI-1, 9.46 µM (inactive). For the same compound, the GI50 in the assay with SNB-75 is > 25 µM (inactive); with NCI/ADR-RES it was 10.2 µM (inactive); with HCT-116 it was > 25 µM (inactive); in the assay on SF-268, > 25 µM (inactive); in the assay on SK-MEL-2, 7.53 µM (inactive); in the assay with HT-29, 20 µM (inactive). For the same compound, the GI50 with CCRF-CEM was 2.72 µM (inactive); in the assay on A498, 17 µM (inactive); in the assay with EKVX, 15.5 µM (inactive); in the assay with 786-0 it was > 25 µM (inactive).
Regarding `Nc1ccc(-c2nc3ccc(F)cc3s2)cc1I`, the GI50 in the assay on SF-539 was 5.9 µM (inactive); in the assay on COLO 205 it was > 100 µM (inactive); in the assay on SF-295, > 71 µM (inactive); with PC-3 it was > 100 µM (inactive); in the assay with RXF 393, > 26.1 µM (inactive); in the assay with M14, > 100 µM (inactive). Moreover, the GI50 in the assay on CAKI-1 is > 100 µM (inactive); with SNB-75 it was 30.8 µM (inactive); in the assay on NCI/ADR-RES it was > 31 µM (inactive); in the assay on SK-MEL-5, > 74.6 µM (inactive); with HCT-116 it was < 0.01 µM (active); in the assay on SF-268, > 63.8 µM (inactive). Besides, the GI50 is 47.1 µM (inactive) in the assay on HOP-62; > 100 µM (inactive) in the assay on SK-MEL-2; 56.1 µM (inactive) with HT-29; > 21.2 µM (inactive) in the assay on CCRF-CEM; > 100 µM (inactive) with A498; > 51.6 µM (inactive) in the assay on EKVX. In the assay on 786-0, the GI50 was 40.4 µM (inactive).
With `C=C[C@H]1CN2CCc3c([nH]c4c([C@H]5CCCN5C)c(O)ccc34)[C@@H]2C[C@@H]1C[C@H]1c2[nH]c3ccccc3c2CCN1C` [STRYCHNOPENTAMINE], the GI50 in the assay with COLO 205 was 1.5 µM (inactive); with SF-295, 1.73 µM (inactive); in the assay with PC-3, 1.57 µM (inactive); in the assay with RXF 393, 1.04 µM (active); in the assay on M14, 1.47 µM (inactive); with CAKI-1, 1.72 µM (inactive). The GI50 in the assay with SNB-75 was 1.14 µM (inactive); in the assay on NCI/ADR-RES it was 1.74 µM (inactive); with HCT-116, 1.33 µM (inactive); with SF-268 it was 1.58 µM (inactive); in the assay on HOP-62, 1.55 µM (inactive); in the assay with SK-MEL-2 it was 1.9 µM (inactive). The GI50 in the assay on HT-29 was 1.3 µM (inactive); in the assay on CCRF-CEM it was 0.719 µM (active); in the assay with A498, 1.63 µM (inactive); with EKVX, 1.75 µM (inactive); in the assay on 786-0 it was 1.43 µM (inactive).

The values above are taken from ChEMBL document CHEMBL1201862, “PubChem BioAssay data set” (2004).
